Patent publication US6156757A, “1,2,3,4-tetrahydro-benzofuro[3,2-C]pyridine derivatives” (Janssen Pharmaceutica N.V., priority 1997, dated 2000)

Assays:
[1] = tested on: α2 -adrenoceptor; experiment: Xylazine-induced loss of righting reflex in rats; assay type: in vivo; details: one hour before xylazine 15 mg/kg i.v., male rats, lowest tested dose at which at least 66% of animals showed no loss of righting reflex
Protocol: This test is based upon the fact that centrally acting α2 -adrenoceptor antagonists reverse the loss of righting reflex induced by an intravenous injection of the α2 agonist xylazine. One hour before injection of xylazine (15 mg/kg, i.v.), male rats (200-250 g) were pretreated with a test compound (er os (p.o.) or subcutaneously (s.c.)) or solvent.

[2] = molecular target: T1, cloned human α2A receptors (Homo sapiens, UniProt P08913); experiment: In vitro binding affinity for α2A receptors (3H-rauwolscine competition binding); details: at a test concentration of 10^-8 M or less; CHO cell expressing cloned human α2A receptors
T1 sequence (P08913 1-465): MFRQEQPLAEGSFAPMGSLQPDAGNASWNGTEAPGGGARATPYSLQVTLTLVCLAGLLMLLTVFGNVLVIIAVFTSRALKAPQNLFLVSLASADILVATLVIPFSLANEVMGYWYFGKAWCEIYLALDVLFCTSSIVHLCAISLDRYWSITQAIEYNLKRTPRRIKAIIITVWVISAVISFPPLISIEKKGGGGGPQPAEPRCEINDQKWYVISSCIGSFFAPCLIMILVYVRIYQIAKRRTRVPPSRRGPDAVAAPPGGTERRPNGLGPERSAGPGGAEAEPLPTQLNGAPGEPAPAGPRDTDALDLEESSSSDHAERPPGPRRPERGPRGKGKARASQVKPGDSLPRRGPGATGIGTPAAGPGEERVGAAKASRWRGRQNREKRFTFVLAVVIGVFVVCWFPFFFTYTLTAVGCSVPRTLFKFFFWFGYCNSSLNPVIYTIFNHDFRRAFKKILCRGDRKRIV
Protocol: The interaction of the compounds of formula (I) with α2 receptors was assessed in in vitro radioligand binding experiments.
In general, a low concentration of a radioligand with a high binding affinity for a particular receptor is incubated with a sample of a tissue preparation enriched in a particular receptor or with a preparation of cells expressing cloned human receptors in a buffered medium. During the incubation, the radioligand binds to the receptor. When equilibrium of binding is reached, the receptor bound radioactivity is separated from the non-bound radioactivity, and the receptor bound activity is counted. The interaction of the test compounds with the receptor is assessed in competition binding experiments. Various concentrations of the test compound are added to the incubation mixture containing the receptor preparation and the radioligand. Binding of the radioligand will be inhibited by the test compound in proportion to its binding affinity and its concentration.
The radioligand used for α2A receptor binding is ^3 H-rauwolscine and the receptor preparation used is the Chinese Hamster Ovary (CHO) cell expressing cloned human α2A receptors.

[3] = molecular target: T2, cloned human α2C receptors (Homo sapiens, UniProt P18825); experiment: In vitro binding affinity for α2C receptors (3H-rauwolscine competition binding); details: at a test concentration of 10^-8 M or less; CHO cell expressing cloned human α2C receptors
T2 construct: expressed in transfected cells; host or cells: CHO cells
T2 sequence (P18825 1-462): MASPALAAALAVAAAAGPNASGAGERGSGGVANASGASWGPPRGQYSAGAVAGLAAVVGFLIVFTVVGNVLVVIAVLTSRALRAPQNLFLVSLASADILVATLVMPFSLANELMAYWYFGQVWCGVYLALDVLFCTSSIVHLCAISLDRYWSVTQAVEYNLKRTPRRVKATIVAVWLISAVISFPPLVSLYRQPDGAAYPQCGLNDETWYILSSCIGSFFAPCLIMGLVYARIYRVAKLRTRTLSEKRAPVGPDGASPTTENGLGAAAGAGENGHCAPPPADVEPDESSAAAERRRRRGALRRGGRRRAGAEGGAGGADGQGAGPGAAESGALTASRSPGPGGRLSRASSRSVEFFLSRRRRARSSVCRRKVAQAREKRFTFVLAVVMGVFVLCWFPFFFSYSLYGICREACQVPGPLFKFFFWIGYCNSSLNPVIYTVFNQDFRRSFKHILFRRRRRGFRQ

Row | inhibition [2] | inhibition at up to 0.01 µM [3] | SMILES | LAD in mg/kg (lowest active dose for xylazine antagonism) ([1]; s.c.) | LAD in mg/kg (lowest active dose for xylazine antagonism) ([1]; p.o.)
1 |  |  | Cc1nc2n(c(=O)c1CCN1CCc3oc4ccccc4c3C1)CCCS2 [Compound 28] | 0.63 mg/kg | 
2 |  |  | Cc1nc2n(c(=O)c1CCN1CCc3oc4ccccc4c3C1)CCS2 [Compound 6] | 0.63 mg/kg | 
3 |  |  | Cn1c(=O)c2c(ncn2CCN2CCc3oc4ccccc4c3C2)n(C)c1=O [Compound 59] | 10.00 mg/kg | 
4 | > 50% |  | O=c1oc2ccccc2n1CCCN1CCc2oc3ccccc3c2C1 [Compound 60] |  | 10.00 mg/kg
5 | > 50% | > 50% | CSc1nc(C)c(CCN2CCc3oc4ccccc4c3C2)c(=O)n1C [Compound 55] |  | 10.00 mg/kg
6 |  | > 50% | O=c1c(CCN2CCc3oc4ccccc4c3C2)c(Cc2ccccc2)nc2ccccn12 [Compound 14] |  | 
7 |  |  | Cc1nc2ccccn2c(=O)c1CCN1CCc2oc3c([N+](=O)[O-])cccc3c2C1 [Compound 22] |  | 10.00 mg/kg
8 |  |  | Cc1nc2ccccn2c(=O)c1CCCN1CCc2oc3ccccc3c2C1 [Compound 26] | 10.00 mg/kg | 
9 |  | > 50% | Cc1ccc(C(=O)N2CCC(CN3CCc4oc5ccccc5c4C3)CC2)cc1 [Compound 58, 4-[(3,4-dihydrobenzofuro[3,2-c]pyridin-2(1H)-yl)methyl]-1-(4-methylbenzoyl)piperidine] |  | 2.50 mg/kg
10 |  |  | Cc1cc2nc(C)c(CCN3CCc4oc5ccccc5c4C3)c(=O)n2o1 [Compound 4] |  | 1.25 mg/kg
11 | > 50% | > 50% | c1ccc2sc(NCCCCCN3CCc4oc5ccccc5c4C3)nc2c1 [Compound 48] | 10.00 mg/kg | 
12 |  |  | Cc1nc2ccccn2c(=O)c1CCN1CCc2oc3ccccc3c2C1 [Compound 3, 3-[2-[3,4-dihydrobenzofuro[3,2-c]pyridin-2(1H)-yl]ethyl]-2-methyl-4H-pyrido[1,2-a]pyrimidin-4-one] | 0.08 mg/kg | 0.31 mg/kg
13 |  | > 50% | Cc1nc2ccccn2c(=O)c1CCN1CCc2oc3c(Cl)cccc3c2C1 [Compound 23] | 2.50 mg/kg | 
14 |  |  | O=c1c(CCN2CCc3oc4ccccc4c3C2)c(Cc2ccccc2)nc2ccccn12 [Compound 29] | 10.00 mg/kg | 
15 |  |  | Cc1nc2ccccn2c(=O)c1CCN1CCc2oc3ccc(Cl)cc3c2C1 [Compound 24] |  | 10.00 mg/kg
16 | > 50% | > 50% | Cc1ccc2nc(C)c(CCN3CCc4oc5ccccc5c4C3)c(=O)n2c1 [Compound 34, 3-[2-[3,4-dihydrobenzofuro[3,2-c]pyridin-2(1H)-yl]ethyl]-2,7-dimethyl-4H-pyrido-[1,2-a]pyrimidin-4-one] | 0.16 mg/kg | 
17 |  |  | Cc1cc(C)n2c(=O)c(CCN3CCc4oc5ccccc5c4C3)c(C)nc2c1 [Compound 37] | 10.00 mg/kg | 
18 |  |  | c1ccc2sc(NCCN3CCc4oc5ccccc5c4C3)nc2c1 [Compound 51, N-2-benzothiazole-3,4-dihydrobenzofuro[3,2-c]pyridin-2(1H)-ethanamine (E)-2-butenedioate (1:1)] | 10.00 mg/kg | 
19 |  |  | Cc1nc2sccn2c(=O)c1CCCN1CCc2oc3ccccc3c2C1 [Compound 27] | 10.00 mg/kg | 

Row | inhibition [2] | inhibition at up to 0.01 µM [3] | SMILES | LAD in mg/kg (lowest active dose for xylazine antagonism) ([1]; s.c.) | LAD in mg/kg (lowest active dose for xylazine antagonism) ([1]; p.o.)
20 | > 50% |  | c1ccc2sc(NCCCN3CCc4oc5ccccc5c4C3)nc2c1 [Compound 49] | 10.00 mg/kg | 
21 |  |  | Cc1nc2c(Cl)cc(Cl)cn2c(=O)c1CCN1CCc2oc3ccccc3c2C1 [Compound 40] |  | 10.00 mg/kg
22 | > 50% |  | Cc1nc2ccccn2c(=O)c1CCN1CCc2oc3ccc(F)cc3c2C1 [Compound 17] | 10.00 mg/kg | 10.00 mg/kg
23 |  | > 50% | Cc1nc2n(C)c(C)cn2c(=O)c1CCN1CCc2oc3ccccc3c2C1 [Compound 8] |  | 
24 |  |  | Cc1nc2n(c(=O)c1CCN1CCc3oc4ccccc4c3C1)CCCC2 [Compound 2] |  | 1.25 mg/kg
25 |  |  | Cc1nc2ccc(Cl)cn2c(=O)c1CCN1CCc2oc3ccccc3c2C1 [Compound 32] | 0.04 mg/kg | 
26 |  |  | Cc1nc2cccc(C)n2c(=O)c1CCN1CCc2oc3ccccc3c2C1 [Compound 39] | 0.63 mg/kg | 
27 |  |  | Cc1nc2n(c(=O)c1CCN1CCc3oc4ccccc4c3C1)CCCC2C (stereo not shown) [Compound 25] |  | 10.00 mg/kg
28 | > 50% | > 50% | COc1cccn2c(=O)c(CCN3CCc4oc5ccccc5c4C3)c(C)nc12 [Compound 65, 3-[2-[3,4-dihydrobenzofuro[3,2-c]-pyridin-2(1H)-yl]ethyl]-9-methoxy-2-methyl-4H-pyrido[1,2-a]pyrimidin-4-one] | 0.63 mg/kg | 
29 |  |  | Cc1nc2scc(C)n2c(=O)c1CCN1CCc2oc3ccccc3c2C1 [Compound 5, 6-[[3,4-dihydrobenzofuro[3,2-c]pyridin-2(lH)-yl]ethyl]-3,7-dimethyl-5H-thiazolo-[3,2-a]pyrimidin-5-one] | 0.63 mg/kg | 
30 |  |  | Cc1nc2c(O)cccn2c(=O)c1CCN1CCc2oc3ccccc3c2C1 [Compound 35] | 10.00 mg/kg | 
31 |  |  | Cc1nc2sccn2c(=O)c1CCN1CCc2oc3ccc(F)cc3c2C1 [Compound 16] |  | 10.00 mg/kg
32 |  |  | Cc1nc2sccn2c(=O)c1CCN1CCc2oc3ccccc3c2C1 [Compound 1, 6-[[3,4-dihydrobenzofuro[3,2-c]pyridin-2(1H)-yl]ethyl]-7-methyl-5H-thiazolo-[3,2-a]pyrimidin-5-one] | 0.63 mg/kg | 
33 |  |  | Cc1ccc2oc3c(c2c1)CN(CCc1c(C)nc2sccn2c1=O)CC3 [Compound 19] | 10.00 mg/kg | 
34 |  |  | Cc1ccn2c(=O)c(CCN3CCc4oc5ccccc5c4C3)c(C)nc2c1 [Compound 36] | 0.63 mg/kg | 
35 |  | > 50% | Cc1nc2n(c(=O)c1CCN1CCc3oc4ccccc4c3C1)CCCC2C (stereo not shown) [Compound 13] |  | 
36 | > 50% |  | Cc1nc2n(c(=O)c1CCN1CCc3oc4ccc(F)cc4c3C1)CCCC2 [Compound 18] | 10.00 mg/kg | 
37 |  | > 50% | c1ccc2sc(NCCCCN3CCc4oc5ccccc5c4C3)nc2c1 [Compound 50] | 10.00 mg/kg | 
38 |  |  | Cc1ccc(C(=O)N2CCCC(CN3CCc4oc5ccccc5c4C3)C2)cc1 (stereo not shown) [Compound 57] |  | 10.00 mg/kg
